From patent US7728107B2 (priority 2005, dated 2010) come the findings set out here.

SMILES strings stand for the structures. Where two headings read alike, the source gives them in different places. Some results are limits rather than exact numbers.

In assay [1] the target is T1, canine 5-HT2A receptor (Canis lupus familiaris, UniProt O46635). Briefly: biochemical.
Assay [2] addresses T1, canine 5-HT2A receptor. Kind of assay: cell-based. The assay is classed as cell-based. Also on record: The resulting 5-HT2A full length cDNA was cloned into the pCIneo vector; expressed in transfected cells. The following applies: for Rel. eff. c5-HT2A: HEK-293, fraction of response to 10 μM 5-HT.
Assay [3] concerns the target T2, canine 5-HT2B receptor (Canis lupus familiaris, UniProt Q50DZ8). Kind of assay: biochemical. The assay is classed as binding. Set-up: Apparent equilibrium dissociation constant KD; other: canine 5-HT2B, COS-7 membranes, mean ± S.E.M. (n = 3 to 6); other: COS-7 membranes; head prints [^3H]-ketanserin; mean ± S.E.M of 3-8 experiments; KD of radioligand; other: canine 5-HT2B, transfected COS-7 membranes; other: HEK-293, Ca^2+ FLIPR, mean ± S.E.M of 3 to 6 experime.

Assay [4] concerns the target T2, canine 5-HT2B receptor. Briefly: cell-based. It counts as cell-based. Also on record: Apparent equilibrium dissociation constant KD; other: canine 5-HT2B, COS-7 membranes, mean ± S.E.M. (n = 3 to 6); other: COS-7 membranes; head prints [^3H]-ketanserin; mean ± S.E.M of 3-8 experiments; KD of radioligand; other: canine 5-HT2B, transfected COS-7 membranes; other: HEK-293, Ca^2+ FLIPR, mean ± S.E.M of 3 to 6 experime. The note with it: for Rel. eff. c5-HT2B: HEK-293, fraction of response to 10 μM 5-HT.

Assay [5] concerns the target T3, human 5-HT2B receptor (Homo sapiens, UniProt P41595).
T3 construct: expressed in transfected cells
Kind of assay: biochemical. It counts as binding.

Assay [6] deals with T3, human 5-HT2B receptor. Briefly: cell-based. The assay is classed as cell-based. The following applies: for Rel. eff h5-HT2B: fraction of response to 10 μM 5-HT.
The target in assay [7] is T4, human 5-HT2A receptor (Homo sapiens, UniProt P28223).
T4 construct: expressed in transfected cells
T4 sequence (P28223 whole entry): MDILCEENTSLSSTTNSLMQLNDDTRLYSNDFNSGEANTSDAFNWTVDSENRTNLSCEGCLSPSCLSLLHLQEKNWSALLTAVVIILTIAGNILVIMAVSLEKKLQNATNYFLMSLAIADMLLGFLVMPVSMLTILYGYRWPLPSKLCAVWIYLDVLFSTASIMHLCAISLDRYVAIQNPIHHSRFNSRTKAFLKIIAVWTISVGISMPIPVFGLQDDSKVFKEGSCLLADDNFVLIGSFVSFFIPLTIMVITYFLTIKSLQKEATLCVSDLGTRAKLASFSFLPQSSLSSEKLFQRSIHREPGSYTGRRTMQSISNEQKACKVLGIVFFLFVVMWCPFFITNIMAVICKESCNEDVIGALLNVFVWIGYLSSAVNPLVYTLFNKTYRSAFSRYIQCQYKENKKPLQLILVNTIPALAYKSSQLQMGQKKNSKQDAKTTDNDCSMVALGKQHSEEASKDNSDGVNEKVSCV
Kind of assay: biochemical. The assay is classed as binding.

The target in assay [8] is T4, human 5-HT2A receptor. Briefly: cell-based. It counts as cell-based.
Where [9] appears, read: read-out: Affinity constant pKI h5-HT2B (converted).
Setting [10] is: read-out: Affinity constant pKI c5-HT2B (converted).
Setting [11] is: HEK-293, Ca^2+ FLIPR, apparent pKB, mean ± S.E.M of 3 to 6 experiments, read-out: Antagonist affinity pKB c5-HT2B (converted).

T1 sequence (O46635 whole entry): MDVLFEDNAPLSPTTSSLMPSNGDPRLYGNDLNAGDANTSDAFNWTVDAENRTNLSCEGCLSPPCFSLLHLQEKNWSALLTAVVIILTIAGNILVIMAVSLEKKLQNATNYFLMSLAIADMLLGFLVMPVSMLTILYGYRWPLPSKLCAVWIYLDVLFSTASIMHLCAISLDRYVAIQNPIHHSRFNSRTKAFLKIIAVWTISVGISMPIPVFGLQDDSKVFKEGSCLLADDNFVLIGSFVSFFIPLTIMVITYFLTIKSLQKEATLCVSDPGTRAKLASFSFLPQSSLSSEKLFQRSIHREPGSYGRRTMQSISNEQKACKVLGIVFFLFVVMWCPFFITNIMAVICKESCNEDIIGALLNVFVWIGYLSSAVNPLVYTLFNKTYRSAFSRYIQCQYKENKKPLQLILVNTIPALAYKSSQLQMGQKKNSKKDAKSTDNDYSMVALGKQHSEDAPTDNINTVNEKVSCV
T3 sequence (P41595 whole entry): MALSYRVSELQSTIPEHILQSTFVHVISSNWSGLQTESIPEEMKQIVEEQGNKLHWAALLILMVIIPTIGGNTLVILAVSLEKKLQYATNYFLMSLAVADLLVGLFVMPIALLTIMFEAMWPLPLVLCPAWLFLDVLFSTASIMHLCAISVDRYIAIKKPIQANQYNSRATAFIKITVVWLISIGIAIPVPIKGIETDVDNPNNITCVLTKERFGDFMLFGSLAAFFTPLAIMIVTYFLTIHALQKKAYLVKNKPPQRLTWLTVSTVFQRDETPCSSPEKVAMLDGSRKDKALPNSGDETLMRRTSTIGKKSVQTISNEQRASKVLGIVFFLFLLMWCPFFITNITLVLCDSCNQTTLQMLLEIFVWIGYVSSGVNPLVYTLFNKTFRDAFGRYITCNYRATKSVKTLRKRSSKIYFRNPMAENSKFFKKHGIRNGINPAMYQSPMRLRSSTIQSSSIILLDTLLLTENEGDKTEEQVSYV

Turning to `O=C(c1ccc(F)cc1)C1CCN(CCn2c(=O)[nH]c3ccccc3c2=O)CC1` [Ketanserin, ketanserin], the Ki in assay [1] is 14.5 nM; in assay [3], 631 nM. Besides, the figures for the Kb in assay [2] and in assay [4] were 1.26 nM and 1580 nM, respectively.

For `Cc1nc2sccn2c(=O)c1CCN1CCC(=C(c2ccc(F)cc2)c2ccc(F)cc2)CC1` [Ritanserin, ritanserin], the Ki is 4.57 nM in assay [5], 7.59 nM in assay [1] and 3.98 nM in assay [3]. The Kb in assay [6] was 5.89 nM; in assay [2] it was 7.08 nM; in assay [4], 10 nM.

For `CN1CCc2cc(Cl)c(O)cc2[C@@H](c2ccccc2)C1` [SCH-23390, R-(+)-7-chloro-8-hydroxy-3-methyl-1-phenyl-2,3,4,5-tetrahydro(1H)-3-benzapine], the Ki was 13.5 nM in assay [7], 275 nM in assay [5] (setting [9]), 16.2 nM in assay [1] and 309 nM in assay [3] (setting [10]).

As for `O=C(c1ccc(F)cc1)C1CCN(CCn2c(=O)[nH]c3ccccc3c2=O)CC1` [[^3H]-ketanserin], the Kd in assay [1] turned out to be 1.3 ± 0.12 nM.

With `COC(=O)[C@@H]1[C@H]2C[C@H]3c4[nH]c5ccccc5c4CCN3C[C@@H]2CC[C@@H]1O` [Yohimbine, yohimbine], the Ki in assay [3] is 81.3 nM. In addition, the Kb in assay [4] is 1.58 nM.

For `COc1cc(CC(C)N)c(OC)cc1I` (centres unmarked) [DOI, 1-(2,5-dimethoxy-4-iodophenyl)-2-aminopropane], the Ki in assay [5] was 15.1 nM; in assay [1], 12 nM; in assay [3] it was 13.2 nM. Moreover, the “Rel. eff. h5-HT2A” value in assay [8] came out at 0.65 ± 0.04. Besides, the “Rel. eff h5-HT2B” value in assay [6] (CHO) is 0.96 ± 0.02. For the same molecule, the “Rel. eff. c5-HT2A” value in assay [2] is given as 0.89 ± 0.02. Also, the “Rel. eff. c5-HT2B” value in assay [4] was determined as 0.75 ± 0.03.

As to `COc1ccc2[nH]cc(C3=CCNCC3)c2c1` [RU-24969, 5-methoxy-3(1,2,3,6-tetrahydro-4-pyridiny)-1H-indole], in assay [3], the Ki was 12.9 nM.

In the case of `CN1C[C@@H](NS(=O)(=O)N(C)C)C[C@@H]2c3cccc4c3c(cn4C)C[C@H]21` [Mesulergine, mesulergine], the Ki is 22.9 nM in assay [7], 8.71 nM in assay [5], 91.2 nM in assay [1] and 17 nM in assay [3] (setting [10]). The Kb is 58.9 nM in assay [8], 2.34 nM in assay [6], 25.1 nM in assay [2] and 0.501 nM in assay [4] (setting [11]).

Turning to `CN1C[C@@H](NS(=O)(=O)N(C)C)C[C@@H]2c3cccc4c3c(cn4C)C[C@H]21` [[^3H]-mesulergine], in assay [3] (canine 5-HT2B, transfected COS-7 membranes, read-out: KD of radioligand), the Kd came out at 5.43 ± 0.69 nM.

Take `CC(N)Cc1c[nH]c2ccc(OCc3cccs3)cc12` (centres unmarked) [BW-723C86, 1-{5-(2-thienyl-methoxy)-1H-3-indolyl}propan-2-amine]: in assay [6] (CHO), the “Rel. eff h5-HT2B” value was 0.98 ± 0.01. Further, the Ki in assay [3] is 26.3 nM. Moreover, in assay [4], the “Rel. eff. c5-HT2B” value was found to be 0.93 ± 0.03.

Consider `Cc1cc(NC(=O)Nc2ccc3c(ccn3C)c2)sn1` [SB-204741, N-(1-methyl-5-in-dolyl)-N′-(3-methyl-5-isothiazolyl) urea], for which the figures for the Ki in assay [5] (setting [9]), in assay [1] and in assay [3] (setting [10]) were 120 nM, over 10000 nM and 182 nM, respectively. Also, the Kb in assay [6] (CHO, Ca^2+ FLIPR, apparent pKB, mean ± S.E.M of 3 to 6 experiments, read-out: Antagonist affinity pKB h5-HT2B (converted)) was 44.7 nM; in assay [2], over 10000 nM; in assay [4] (setting [11]) it was 44.7 nM.

`Clc1cccc(N2CCNCC2)c1` [m-CPP, 1-(3-chlorophenyl)piperazine]: the “Rel. eff. h5-HT2A” value in assay [8] came to 0.20 ± 0.02. Further, in assay [6] (CHO), the “Rel. eff h5-HT2B” value is 0.55 ± 0.06. Besides, the Ki was 195 nM in assay [1] and 20.9 nM in assay [3]. The “Rel. eff. c5-HT2A” value in assay [2] worked out at 0.71 ± 0.04. Further, the “agonist potency at canine 5-HT2A compared to human 5-HT2A” value in assay [2] (functional Ca^2+ assay, Table 3) is on record as “higher potencies”. The “agonistic response on canine 5-HT2B receptor” value in assay [4] (HEK-293, Ca^2+ FLIPR) is listed as “no agonistic response”.
